From ChEMBL document CHEMBL2069276, “Identification of a novel serum and glucocorticoid regulated kinase-1 (SGK1) ligand from virtual screening” (Bioorg Med Chem Lett, 2012) come the findings set out here.

In series [1] the target is T1, Serine/threonine-protein kinase Sgk1 (Homo sapiens) (UniProt O00141).
T1 sequence (whole entry): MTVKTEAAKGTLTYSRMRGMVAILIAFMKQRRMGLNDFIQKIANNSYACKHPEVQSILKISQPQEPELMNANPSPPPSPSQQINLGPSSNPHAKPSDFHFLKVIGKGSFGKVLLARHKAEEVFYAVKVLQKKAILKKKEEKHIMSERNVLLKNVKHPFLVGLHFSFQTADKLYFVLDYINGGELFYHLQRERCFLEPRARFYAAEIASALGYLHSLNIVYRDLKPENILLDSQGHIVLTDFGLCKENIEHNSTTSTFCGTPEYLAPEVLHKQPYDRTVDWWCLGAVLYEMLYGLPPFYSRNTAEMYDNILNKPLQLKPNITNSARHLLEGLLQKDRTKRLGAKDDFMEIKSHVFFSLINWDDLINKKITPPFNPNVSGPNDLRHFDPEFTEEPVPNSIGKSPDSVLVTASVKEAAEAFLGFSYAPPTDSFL
As to the kind of experiment: Inhibition of constitutively active SGK1 expressed in human HEK293 cells assessed as inhibition of FOXO3a phosphorylation at Thr 32 after 40 hrs. It is filed as cell-based.

In series [2] the test system is T2, Serine/threonine-protein kinase Sgk1 (Homo sapiens), O00141 [S422D].
T2 sequence (whole entry): T1 sequence (whole entry) with S422D
The experiment in a line: Inhibition of SGK1 S422D mutant expressed in human HEK293 cells assessed as inhibition of FOXO3a phosphorylation at Thr 32 after 40 hrs. The format is cell-based.

Series [3] concerns HEK293. The experiment in a line: Induction of vacuolization in human HEK293 cells at >1 uM. The format is cell-based.
For series [4], the target named is T3, Serine/threonine-protein kinase Sgk1 (Homo sapiens, UniProt O00141).
T3 sequence (O00141 whole entry): T1 sequence (whole entry)
The experiment in a line: Inhibition of human recombinant SGK1.

Series [5] has as its system HEK293. The experiment in a line: Induction of vacuolization in human HEK293 cells up to 100 uM. It is filed as cell-based.
For series [6], the target named is T1, Serine/threonine-protein kinase Sgk1 (Homo sapiens). As to the kind of experiment: Inhibition of constitutively active SGK1 expressed in human HEK293 cells assessed as inhibition of FOXO3a phosphorylation at Thr 32 at 100 uM after 40 hrs. The format is cell-based.
The subject of series [7] is T2, Serine/threonine-protein kinase Sgk1 (Homo sapiens), O00141 [S422D]. The experiment in a line: Inhibition of SGK1 S422D mutant expressed in human HEK293 cells assessed as inhibition of FOXO3a phosphorylation at Thr 32 at 100 uM after 40 hrs. It is filed as cell-based.

SMILES strings stand for the structures. Numbering of substitutions follows the chain as printed. The source made the active and inactive calls. The calls are words filed in the database; no cut-off is given here.

`O=C(O)c1ccc(-c2c[nH]c3ncc(-c4ccccc4)cc23)cc1C1CCCC1` [GSK-650394]: the inhibition entry in series [1] and in series [2] was “Dose-dependent effect” in each case. Also, the Activity result in the series on HEK293 [3] is recorded as “Toxic”.

Broadly, the IC50 is the concentration at which inhibition is half-maximal. With `COc1ccc(NC(=O)Cc2nc(-c3ccc([N+](=O)[O-])cc3)cs2)cc1`, the IC50 in series [4] was 60 µM. In addition, the Activity result in the series on HEK293 [5] is given as “Non-toxic”. Further, the inhibition entry in series [6] and in series [7] was “Active” each time.
